Test in all cases: relative viability (nuclei count vs DMSO), 5 days (fraction); higher = more cells survive
Compound in test [1]: CN1CCN(CC1)C2=CC(=C(C=C2)NC3=NC=C4C(=N3)N(C5=CC=CC=C5C(=O)N4C)C)OC [XMD8-85] + CS(=O)(=O)CCNCc1ccc(-c2ccc3ncnc(Nc4ccc(OCc5cccc(F)c5)c(Cl)c4)c3c2)o1 [Lapatinib] (partner 2 µM)
The procedure, abridged: (§1)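 Five library-drug doses in √10 steps were combined with a fixed anchor-drug dose, or a single drug was given alone, by pin tool to lung cancer cell lines in 1536-well plates the day after seeding. Nuclei were stained and counted after 5 days. Relative viability is the nuclei count in treated wells over that in vehicle wells, taken as the median of duplicate plates.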

Compound in test [2]: CN1CCN(CC1)C2=CC(=C(C=C2)NC3=NC=C4C(=N3)N(C5=CC=CC=C5C(=O)N4C)C)OC [XMD8-85] + Cc1nc(Nc2ncc(C(=O)Nc3c(C)cccc3Cl)s2)cc(N2CCN(CCO)CC2)n1 [Dasatinib] (partner 0.075 µM)
The procedure, abridged:
as §1

Compound in test [3]: O=C(O)C(Cc1ccccc1[N+](=O)[O-])=NNc1nc(-c2ccc(Cl)c(Cl)c2)cs1 (mixture of isomers) [4EGI-1] + C[C@@H](Oc1cc(-c2cnn(C3CCNCC3)c2)cnc1N)c1c(Cl)ccc(F)c1Cl [Crizotinib] (partner 1 µM)
Put shortly: as §1

Compound in test [4]: O=C(O)C(Cc1ccccc1[N+](=O)[O-])=NNc1nc(-c2ccc(Cl)c(Cl)c2)cs1 (mixture of isomers) [4EGI-1] + O=C(c1cc(Cc2n[nH]c(=O)c3ccccc23)ccc1F)N1CCN(C(=O)C2CC2)CC1 [Olaparib] (partner 8 µM)
Put shortly:
as §1

As for BEN, the relative viability worked out at 0.86 in test [1] (first compound 0.08 µM); 0.571 in test [1] (first compound 0.8 µM); 0.487 in test [1] (first compound 2.53 µM); 0.334 in test [1] (first compound 8 µM); 0.322 in test [2] (first compound 0.08 µM); 0.332 in test [2] (first compound 0.253 µM). The relative viability in test [2] (first compound 0.8 µM) worked out at 0.38; in test [2] (first compound 2.53 µM), 0.27; in test [2] (first compound 8 µM), 0.301; in test [3] (first compound 0.5 µM), 1.07; in test [3] (first compound 1.581 µM), 1.1; in test [3] (first compound 5 µM), 0.885. Besides, the relative viability in test [3] (first compound 15.81 µM) is 0.821; in test [3] (first compound 50 µM), 0.796; in test [4] (first compound 0.5 µM), 1.15; in test [4] (first compound 1.581 µM), 1.09; in test [4] (first compound 5 µM) it was 1.2; in test [4] (first compound 15.81 µM), 0.891. Moreover, the relative viability in test [4] (first compound 50 µM) was 0.595.

With HCC-827, the relative viability was 0.185 in test [1] (first compound 0.08 µM); 0.192 in test [1] (first compound 0.253 µM); 0.175 in test [1] (first compound 0.8 µM); 0.195 in test [1] (first compound 2.53 µM); 0.193 in test [1] (first compound 8 µM); 0.403 in test [2] (first compound 0.08 µM). Moreover, the relative viability in test [2] (first compound 0.253 µM) came out at 0.33; in test [2] (first compound 0.8 µM), 0.34; in test [2] (first compound 2.53 µM), 0.439; in test [2] (first compound 8 µM), 0.457; in test [3] (first compound 0.5 µM), 0.935; in test [3] (first compound 1.581 µM), 0.819. Moreover, the relative viability stood at 0.868 in test [3] (first compound 5 µM); 0.685 in test [3] (first compound 50 µM); 0.572 in test [4] (first compound 0.5 µM); 0.457 in test [4] (first compound 1.581 µM); 0.703 in test [4] (first compound 5 µM); 0.406 in test [4] (first compound 50 µM).

Consider HOP-62, for which the relative viability is 1.11 in test [1] (first compound 0.08 µM); 0.904 in test [1] (first compound 0.253 µM); 0.978 in test [1] (first compound 0.8 µM); 1.13 in test [1] (first compound 2.53 µM); 0.797 in test [1] (first compound 8 µM); 0.644 in test [2] (first compound 0.08 µM). The relative viability in test [2] (first compound 0.253 µM) was 0.594; in test [2] (first compound 0.8 µM) it was 0.661; in test [2] (first compound 8 µM) it was 0.433; in test [3] (first compound 0.5 µM) it was 0.667; in test [3] (first compound 5 µM), 0.938; in test [3] (first compound 15.81 µM), 0.89. Further, the relative viability stood at 0.574 in test [3] (first compound 50 µM); 0.493 in test [4] (first compound 0.5 µM); 0.445 in test [4] (first compound 5 µM); 0.208 in test [4] (first compound 15.81 µM); 0.267 in test [4] (first compound 50 µM).

Take NCI-H1355: the relative viability in test [1] (first compound 0.08 µM) stood at 0.956; in test [1] (first compound 0.253 µM) it was 1.03; in test [1] (first compound 0.8 µM), 1.01; in test [1] (first compound 2.53 µM), 1.08; in test [1] (first compound 8 µM), 0.875; in test [2] (first compound 0.08 µM) it was 0.671. In addition, the relative viability in test [2] (first compound 0.253 µM) was 0.753; in test [2] (first compound 0.8 µM), 0.653; in test [2] (first compound 2.53 µM), 0.819; in test [3] (first compound 0.5 µM) it was 1.18; in test [3] (first compound 1.581 µM), 0.952; in test [3] (first compound 5 µM), 1.03. In addition, the relative viability amounted to 0.779 in test [3] (first compound 15.81 µM); 0.748 in test [3] (first compound 50 µM); 0.86 in test [4] (first compound 0.5 µM); 0.742 in test [4] (first compound 1.581 µM); 0.795 in test [4] (first compound 5 µM); 0.469 in test [4] (first compound 15.81 µM). In test [4] (first compound 50 µM), the relative viability worked out at 0.334.

Turning to A549, the relative viability was found to be 1.08 in test [1] (first compound 0.08 µM); 0.974 in test [1] (first compound 0.253 µM); 1.06 in test [1] (first compound 0.8 µM); 1.03 in test [1] (first compound 2.53 µM); 0.869 in test [1] (first compound 8 µM); 0.742 in test [3] (first compound 0.5 µM). The relative viability in test [3] (first compound 1.581 µM) was found to be 0.683; in test [3] (first compound 5 µM), 0.787; in test [3] (first compound 15.81 µM), 0.669; in test [3] (first compound 50 µM), 0.0783; in test [4] (first compound 0.5 µM) it was 0.495; in test [4] (first compound 5 µM), 0.306. The relative viability in test [4] (first compound 15.81 µM) stood at 0.355; in test [4] (first compound 50 µM), 0.301.

The record behind these values is the supplement of paper PMC10307832.
